PubChem BioAssay (NCI)
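48-hour exposure; five concentrations; linearly interpolated endpoints. Definition used: TGI = concentration required for complete inhibition of growth.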

Key:
Experiment in all cases: NCI tumour cell line growth inhibition, 48 h
DMS 273 small cell lung = system: DMS 273 small cell lung
KM20L2 colon = system: KM20L2 colon
M19-MEL melanoma = system: M19-MEL melanoma
P388 leukemia = system: P388 leukemia
P388/ADR leukemia = system: P388/ADR leukemia
SN12K1 renal = system: SN12K1 renal
SNB-78 CNS = system: SNB-78 CNS
786-0 renal = system: 786-0 renal
RXF-631 renal = system: RXF-631 renal

Structure (SMILES)	TGI (DMS 273 small cell lung)	TGI (KM20L2 colon)	TGI (M19-MEL melanoma)	TGI (P388 leukemia)	TGI (P388/ADR leukemia)	TGI (SN12K1 renal)	TGI (SNB-78 CNS)	TGI (786-0 renal)	TGI (RXF-631 renal)
NC(=S)N/N=C/c1ccc(OC(=O)COc2ccccc2Cl)cn1	> 71.6 µM	> 100 µM	> 92.2 µM	13.4 µM	20.7 µM	> 100 µM	> 100 µM		
CCOC(=O)Oc1ccc2c(c1)c(=O)c1c(NCCCN(CC)CC)ccc3nnn2c31								15.7 µM	
C/C([O-])=C(/c1nc(-c2ccc([N+](=O)[O-])o2)no1)[n+]1cc(C)ccc1C	26.1 µM	27.5 µM	17.6 µM	> 100 µM	> 100 µM	28.6 µM	> 100 µM		
COc1cc(Cc2ccc3c(c2C#N)N(C)c2ccccc2S3)cc(OC)c1OC	> 100 µM	> 100 µM	> 100 µM				> 100 µM		
C/C(=N\NC(=S)Nc1ccc(Cl)cc1)c1nc2ncccc2[nH]1								29.7 µM	
Cc1ncc(CO)c(C=NCCCCCCN=Cc2c(CO)cnc(C)c2O)c1O								> 100 µM	
CCOC(=O)C(=O)Nc1cccc(C)c1C	> 100 µM	> 100 µM	> 100 µM				> 100 µM		
O=c1oc2c(ccc3c(O)cccc32)c2c1CCCC2								> 100 µM	
O=C(O)CN=c1c2ccccc2n(O)c2ccccc12	> 100 µM	> 100 µM	> 100 µM				> 100 µM	> 100 µM	> 100 µM
